Experimental data taken from patent US10842845B2, “Oxytocin improves treatment of obstructive sleep apnea” (THE GEORGE WASHINGTON UNIVERSITY, priority 2014, dated 2020).

How the values were obtained:
OXT receptors = assay: Calcium imaging in OXT receptor-expressing CHO cells on brainstem slices upon photoactivation of ChR2-containing PVN fibers; assay type: cell-based, rat; conditions: from baseline during first second; CIH/H animals with daily injections of CNO (chronic OXT neuron activation); n=17; CIH/H alone 8.1±0.01%
Procedure: Visualization of CHO cells expressing OXT receptors and the calcium indicator, as well as ChR2-containing PVN fibers, were performed on a confocal microscope system as previously described (Gamer and Buchel, 2012). To examine activation of OXT receptors upon optogenetic activation of ChR2-expressing PVN fibers in the DMV, CHO cells were pipetted onto the dorsal motor nucleus (DMV) of brain stem slices from animals previously injected with pLenti-Syn-hChR2(H134R)-EYFP-WPRE into the PVN, OXT-sensitive CHO cells within the boundaries of the DMV and in close apposition to ChR2-containing PVN fibers (7.5±0.5 μm) were used for experiments.
1-2 weeks after telemetry implantation, DREADDs receptors on PVN OXT neurons were activated daily by intraperitoneal (IP) injection of clozapine-n-oxide (CNO, 1.0 mg/kg). To investigate the effects of CNO on resting BP and HR in both DREADDs-expressing and sham animals, 3 days prior to CIH/H exposure (control days) baseline BP and HR values were recorded for a 20 min period before CNO injection. Animals from each group then received an IP injection of CNO, BP and HR were recorded for 1 hr, and the animals then underwent exposure to air for 8 hr to achieve acclimation to the chambers. […]

[1] = target: T1, DREADDs receptors on PVN OXT neurons (Homo sapiens, UniProt P20309, A239G/Y149C); assay: MAP over 21 days of CIH/H exposure with daily PVN OXT neuron activation (daily CNO); assay type: in vivo, Sprague-Dawley rats; conditions: n=8
T1 construct: mCherry (C); host or cells: PVN oxytocin neurons of Sprague-Dawley rats, in vivo, transduced with AAV2-hSyn-DIO-hM3D(Gq)-mCherry and rAAV1-OXT-Cre
T1 sequence (P20309 whole entry Y149C/A239G, the tested form may be a part): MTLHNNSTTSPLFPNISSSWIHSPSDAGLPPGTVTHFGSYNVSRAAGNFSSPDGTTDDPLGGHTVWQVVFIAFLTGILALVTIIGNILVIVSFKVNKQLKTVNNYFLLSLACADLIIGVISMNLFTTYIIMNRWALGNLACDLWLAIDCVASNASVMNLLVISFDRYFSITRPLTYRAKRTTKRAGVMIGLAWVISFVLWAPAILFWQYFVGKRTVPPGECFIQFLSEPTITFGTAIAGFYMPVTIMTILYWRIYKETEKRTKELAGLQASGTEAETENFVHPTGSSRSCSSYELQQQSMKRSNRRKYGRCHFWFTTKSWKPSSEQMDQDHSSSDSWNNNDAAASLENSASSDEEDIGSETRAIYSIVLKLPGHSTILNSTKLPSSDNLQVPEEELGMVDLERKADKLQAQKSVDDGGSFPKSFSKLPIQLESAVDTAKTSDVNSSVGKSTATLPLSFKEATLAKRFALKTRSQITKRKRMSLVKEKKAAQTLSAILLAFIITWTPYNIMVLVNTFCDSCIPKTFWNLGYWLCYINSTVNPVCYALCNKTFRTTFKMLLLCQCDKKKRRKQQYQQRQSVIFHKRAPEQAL
Source text: To record blood pressure and heart rate, male Sprague-Dawley rats, 3-4 weeks of age, were anesthetized using isoflurane (2-4%) and a HD-XII pressure transmitter was implanted (Data Sciences International, St Paul, Minn., USA) with its cathether inserted into the abdominal aorta to record pressure and EKG leads were attached subcutaneously to obtain EKG recordings and heart rate. All rats with telemetry devices were allowed 7-14 days to recover from transmitter implantation surgery before any measurements were recorded. Blood pressure and heart rate were recorded via radio-frequency signals obtained through the Ponemah data acquisition system (Data Sciences International). Baseline recordings of blood pressure and heart rate were obtained for 3 days prior to CIH/H exposure. Prior to, and during, the 28 day CIH/H exposure period daily baseline recordings of blood pressure and heart rate were recorded.
Animals were exposed to repetitive cycles of 3 minutes of mild H/H (6% O2+5% CO2+89%, N2) followed by 3 minutes of normoxia (21% O2+79% N2), repeated for 10 times per hour, 8 hr/day, for 3 or 4 weeks. The animals were exposed to CIH/H for 8 hours during light phase and to normal air during the remaining 16 hr. Unexposed animals that were exposed to normal air (21% O2+79% N2), were placed adjacent to the chambers during the exposure period to undergo similar handling, general lab conditions, and background noise as the CIH/H group.
1-2 weeks after telemetry implantation, DREADDs receptors on PVN OXT neurons were activated daily by intraperitoneal (IP) injection of clozapine-n-oxide (CNO, 1.0 mg/kg). To investigate the effects of CNO on resting BP and HR in both DREADDs-expressing and sham animals, 3 days prior to CIH/H exposure (control days) baseline BP and HR values were recorded for a 20 min period before CNO injection. Animals from each group then received an IP injection of CNO, BP and HR were recorded for 1 hr, and the animals then underwent exposure to air for 8 hr to achieve acclimation to the chambers. During the 21 days of CIH/H exposure, baseline recordings of BP and HR were obtained before CNO injection, recorded for 1 hr post CNO injection, and for the entire duration of OHM exposure.
To examine the effects of CNO on and the chronic changes to mean arterial blood pressure (MAP) over the 21 days of OHM exposure, values were recorded before and after CNO injection on control days prior to CIH exposures, and days 1, 3, 6, 9, 12, 15, 18, and 21 of CIH/H. Changes within the DREADDs-expressing animals and the sham animals were statistically analyzed by one-way ANOVA with repeated-measures followed by Bonferroni's multiple comparison test. […]

C[N+]1([O-])CCN(C2=Nc3cc(Cl)ccc3Nc3ccccc32)CC1 [CNO, clozapine-n-oxide]
average increase in intracellular calcium in OXT-sensitive CHO cells upon photostimulation of ChR2-containing PVN fibers in the DMV (OXT receptors): 23.4±0.03%
MAP in DREADDs-expressing group, Day 12 ([1]; Day 12 of CIH/H, sham group 117±4.1 mmHg): 105±2.6 mmHg
MAP in DREADDs-expressing group, Day 15 ([1]; Day 15 of CIH/H, sham group 118±2.6 mmHg): 105±3.1 mmHg
MAP in DREADDs-expressing group, Day 18 ([1]; Day 18 of CIH/H, sham group 122±1.1 mmHg): 104±2.9 mmHg
MAP in DREADDs-expressing group, Day 21 ([1]; Day 21 of CIH/H, 104±2.6 mmHg on control days, sham group 120±0.5 mmHg): 103±3.0 mmHg
